Experimental findings from ChEMBL document CHEMBL4699557, “Structure activity relationship of novel antiviral nucleosides against Enterovirus A71” (Bioorg Med Chem Lett, 2020) are described below.

A value given as a limit tells only on which side of the number the result lay.

Series [1] relates to Vero 76. As to the kind of experiment: Cytotoxicity against monkey Vero 76 cells by neutral red uptake assay. The class given is cell-based. Particulars: chlorocebus sabaeus, vero 76.
For series [2], the system named is Enterovirus A71. As to the kind of experiment: microbe, parasite or virus in culture. The class given is functional, organism-based, Tainin/4643/98, Vero 76. Particulars: Enterovirus A, Tainin/4643/98, Vero 76, 72 h.
Series [3] in a line: in vitro. Particulars: monkey, Vero 76 cells.
Series [4] concerns Vero 76. As to the kind of experiment: Cytotoxicity against monkey Vero 76 cells by microscopic analysis. Particulars: chlorocebus sabaeus, vero 76. The class given is cell-based.
Series [5] deals with Enterovirus A71. As to the kind of experiment: microbe, parasite or virus in culture. In kind it is functional, organism-based. Conditions: Enterovirus A, Tainin/4643/98, Vero 76, 72 h.
Series [6] can be described thus: in vitro. Conditions: monkey, Vero 76 cells. The source holds these as a separate data set.

By CC50 is commonly meant the concentration giving 50% cytotoxicity. As usually defined, the EC50 is the concentration needed to bring the measured effect to its halfway point. Turning to `CCOC(=O)c1ccc(OCCC2CCN(c3ccc(C)nn3)CC2)cc1` [PIRODAVIR], the CC50 in series [1] was 17 µM; in series [4], > 27 µM. Further, the EC50 is 0.86 µM in series [2] and 0.57 µM in series [5]. The selectivity ratio in series [3] was 30; in series [6] it was > 31.
For `O[C@@H]1[C@H](O)[C@@H]2C[C@@H]2[C@H]1n1ccc2c(NC(C3CC3)C3CC3)nc(I)nc21`, the CC50 is 44 µM in series [1] and 100 µM in series [4]. Further, the values for the EC50 in series [2] and in series [5] were > 100 µM and 32 µM, respectively. Moreover, the selectivity ratio in series [3] came to 1.4.
Regarding `CC(C)(O)[C@@H](Nc1nc(Cl)nc2c1ccn2[C@H]1[C@H](O)[C@H](O)[C@]2(CO)C[C@H]12)C1CC1`, the values for the CC50 in series [1] and in series [4] were 63 µM and > 100 µM, respectively. The EC50 is > 100 µM in series [2] and > 63 µM in series [5].
Turning to `O[C@@H]1[C@H](O)[C@@H]2C[C@@H]2[C@H]1n1cnc2c(NC(C3CC3)C3CC3)nc(I)nc21`, the CC50 in series [1] is 50 µM; in series [4], > 50 µM. Further, the EC50 in series [2] and in series [5] was > 50 µM in each case.
With `COC(=O)c1cnn(-c2nc(NC(C3CC3)C3CC3)c3ncn([C@H]4[C@H](O)[C@H](O)[C@@H]5C[C@@H]54)c3n2)c1`, the CC50 in series [1] is 50 µM; in series [4], > 50 µM. For the same compound, the EC50 in series [2] and in series [5] was > 50 µM in each case.
As for `O[C@@H]1[C@H](O)[C@@H]2C[C@@H]2[C@H]1n1cnc2c(NCC(C3CC3)C3CC3)nc(Cl)nc21`, the CC50 in series [1] is 10 µM; in series [4], > 50 µM. The EC50 in series [2] is > 50 µM; in series [5], > 10 µM.
With `OC[C@H]1O[C@@H](n2cnc3c(NC(C4CCC4)C4CCC4)ncnc32)[C@H](O)[C@@H]1O`, the CC50 in series [1] and in series [4] was > 100 µM each time. Also, the half-maximal effective concentration (EC50) in series [2] and in series [5] was > 100 µM in each case.
Take `OC[C@@]12C[C@@H]1[C@@H](n1cnc3c(NC(C4CCC4)C4CCC4)nc(Cl)nc31)[C@H](O)[C@@H]2O`: the CC50 was found to be 28 µM in series [1] and 50 µM in series [4]. For the same compound, the EC50 in series [2] is 16 µM; in series [5] it was > 28 µM. Further, the selectivity ratio in series [6] came to 3.1.
As to `CC(C)[C@@H](Nc1nc(Cl)nc2c1ncn2[C@H]1[C@H](O)[C@H](O)[C@]2(CN)C[C@H]12)C1CC1`, the CC50 in series [1] and in series [4] was 32 µM in each case. In addition, the EC50 in series [2] and in series [5] was > 32 µM throughout.
With `OC[C@H]1O[C@@H](n2cnc3c(NC(C4CCC4)C4CCC4)nc(Cl)nc32)[C@H](O)[C@@H]1O`, the CC50 turned out to be 27 µM in series [1] and 32 µM in series [4]. In addition, the EC50 in series [2] was > 32 µM; in series [5], > 27 µM.
For `CC(C)C(Nc1nc(Cl)nc2c1ncn2[C@H]1[C@H](O)[C@H](O)[C@]2(CO)C[C@H]12)C(C)C`, in that order: > 100 µM, > 100 µM, 32 µM and 32 µM.
On to `CC[C@@H](Nc1nc(SC)nc2c1ccn2[C@H]1[C@H](O)[C@H](O)[C@]2(CO)C[C@H]12)C1CC1`, for which the CC50 in series [1] and in series [4] was > 50 µM in each case. Further, the selectivity ratio in series [3] is > 22; in series [6] it was > 3.1. The same compound showed an EC50 in series [5] of 2.3 µM.
With `Nc1nc(Cl)nc2c1ncn2[C@H]1[C@H](O)[C@H](O)[C@]2(CO)C[C@H]12`, the CC50 was 36 µM in series [1] and > 50 µM in series [4]. Further, the results for the EC50 in series [2] and in series [5] were > 50 µM and > 36 µM, respectively.
Consider `OC[C@@]12C[C@@H]1[C@@H](n1cnc3c(N[C@@H](C4CCC4)C4CC4)nc(Cl)nc31)[C@H](O)[C@@H]2O`, for which the CC50 in series [1] is 13 µM. Besides, the EC50 in series [2] turned out to be 16 µM; in series [5], 8 µM. Also, the figures for the selectivity ratio in series [3] and in series [6] were 1.6 and > 3.1, respectively.
Take `CCOC(=O)[C@@]12C[C@@H]1[C@@H](n1cnc3c(NC(C4CC4)C4CC4)nc(Cl)nc31)[C@H](O)[C@@H]2O`: the CC50 in series [1] is 1.5 µM; in series [4] it was > 50 µM. Also, the figures for the EC50 in series [2] and in series [5] were > 50 µM and > 1.5 µM, respectively.
As for `CSc1nc(N[C@H](C(C)C)C2CC2)c2ncn([C@H]3[C@H](O)[C@H](O)[C@]4(CO)C[C@H]34)c2n1`, the CC50 in series [1] and in series [4] was > 100 µM each time. The selectivity ratio in series [3] is > 1.5. For the same compound, in series [5], a half-maximal response (EC50) required 66 µM.
For the compound `NCCCNC(=O)[C@@]12C[C@@H]1[C@@H](n1cnc3c(NC(C4CC4)C4CC4)nc(Cl)nc31)[C@H](O)[C@@H]2O`, the figures for the CC50 in series [1] and in series [4] were 50 µM and > 50 µM, respectively. Further, the EC50 in series [2] and in series [5] was > 50 µM throughout.
As for `OC[C@H]1O[C@@H](n2cnc3c(NC(C4CC4)C4CC4)ncnc32)[C@H](O)[C@@H]1O`, the CC50 in series [1] and in series [4] was > 50 µM in each case. For the same compound, the EC50 in series [2] and in series [5] was > 50 µM in each case.
Regarding `O[C@@H]1[C@H](O)[C@@H]2C[C@@H]2[C@H]1n1cnc2c(N[C@H](CC3CC3)C3CC3)nc(Cl)nc21`, the CC50 in series [1] was 9.9 µM. Moreover, the EC50 in series [2] came to 21 µM; in series [5], 8.1 µM. Moreover, the selectivity ratio in series [3] is 1.2; in series [6] it was > 2.4.
For the compound `O[C@@H]1[C@H](O)[C@@H]2C[C@@H]2[C@H]1n1cnc2c(N[C@@H](CC3CC3)C3CC3)nc(Cl)nc21`, the CC50 was 7.6 µM in series [1] and > 50 µM in series [4]. Also, the EC50 in series [2] is 18 µM; in series [5], > 7.6 µM. In addition, in series [6], the selectivity ratio was > 2.8.
As to `CSC[C@@]12C[C@@H]1[C@@H](n1cnc3c(N[C@H](C(C)C)C4CC4)nc(Cl)nc31)[C@H](O)[C@@H]2O`, the CC50 in series [1] and in series [4] was 32 µM each time. For the same compound, the figures for the EC50 in series [2] and in series [5] were > 32 µM and 8.4 µM, respectively. Also, the selectivity ratio in series [3] stood at 3.8.
As to `NCCNC(=O)[C@@]12C[C@@H]1[C@@H](n1cnc3c(NC(C4CC4)C4CC4)nc(Cl)nc31)[C@H](O)[C@@H]2O`, the CC50 is 50 µM in series [1] and > 50 µM in series [4]. In addition, the EC50 in series [2] and in series [5] was > 50 µM each time.
As for `OC[C@@]12C[C@@H]1[C@@H](n1cnc3c(NCc4ccccc4)nc(Cl)nc31)[C@H](O)[C@@H]2O`, the CC50 in series [1] and in series [4] was > 100 µM throughout. The EC50 in series [2] and in series [5] was > 100 µM throughout.
For the compound `CC(C)(O)[C@@H](Nc1nc(Cl)nc2c1ncn2[C@H]1[C@H](O)[C@H](O)[C@]2(CO)C[C@H]12)C1CC1`, the CC50 in series [1] and in series [4] was > 100 µM each time. In addition, the EC50 in series [2] and in series [5] was > 100 µM each time.
`CC(C)[C@H](Nc1nc(Cl)nc2c1ncn2[C@H]1[C@H](O)[C@H](O)[C@]2(CO)C[C@H]12)C1CC1`: the CC50 in series [1] and in series [4] was > 50 µM in each case. For the same compound, the results for the EC50 in series [2] and in series [5] were 12 µM and 2.3 µM, respectively.
For the compound `O=C(O)c1cnn(-c2nc(NC(C3CC3)C3CC3)c3ncn([C@H]4[C@H](O)[C@H](O)[C@@H]5C[C@@H]54)c3n2)c1`, the CC50 in series [1] was 50 µM; in series [4], > 50 µM. The EC50 in series [2] and in series [5] was > 50 µM each time.
For the compound `O=C(O)[C@@]12C[C@@H]1[C@@H](n1cnc3c(NC(C4CC4)C4CC4)nc(Cl)nc31)[C@H](O)[C@@H]2O`, the CC50 in series [1] was 50 µM; in series [4], > 50 µM. Further, the EC50 in series [2] and in series [5] was > 50 µM each time.
For `O[C@@H]1[C@H](O)[C@@H]2C[C@@H]2[C@H]1n1cnc2c(NC(C3CCC3)C3CCC3)nc(Cl)nc21`, the results for the CC50 in series [1] and in series [4] were 17 µM and 16 µM, respectively. The EC50 in series [5] is > 17 µM.
Turning to `CC(C)(C)[C@H](Nc1nc(Cl)nc2c1ncn2[C@H]1[C@H](O)[C@H](O)[C@]2(CO)C[C@H]12)C1CC1`, the CC50 in series [1] and in series [4] was > 100 µM throughout. Besides, the concentration for a half-maximal effect (EC50) in series [2] is 32 µM; in series [5], 31 µM.
Take `O[C@@H]1[C@H](O)[C@@H]2C[C@@H]2[C@H]1n1cnc2c(NC(C3CC3)C3CC3)ncnc21`: the CC50 in series [1] and in series [4] was > 50 µM each time. The EC50 in series [2] and in series [5] was > 50 µM in each case.
In the case of `O[C@@H]1[C@H](O)[C@@H]2C[C@@H]2[C@H]1n1cnc2c(NCc3ccccc3F)nc(Cl)nc21`, the CC50 in series [1] is 23 µM; in series [4], > 50 µM. Besides, the EC50 in series [2] was > 50 µM; in series [5], > 23 µM.
On to `NNc1nc(NC(C2CC2)C2CC2)c2ncn([C@H]3[C@H](O)[C@H](O)[C@@H]4C[C@@H]43)c2n1`, for which the values for the CC50 in series [1] and in series [4] were 50 µM and > 50 µM, respectively. In addition, the EC50 in series [2] and in series [5] was > 50 µM each time.
With `CSc1nc(N[C@@H](C2CC2)C(C)(C)O)c2ccn([C@H]3[C@H](O)[C@H](O)[C@]4(CO)C[C@H]34)c2n1`, the CC50 in series [1] and in series [4] was > 100 µM throughout. For the same compound, the EC50 in series [2] and in series [5] was > 100 µM each time.
With `CC[C@H](Nc1nc(Cl)nc2c1ncn2[C@H]1[C@H](O)[C@H](O)[C@]2(CO)C[C@H]12)C1CC1`, the CC50 in series [1] and in series [4] was > 50 µM in each case. Moreover, the values for the selectivity ratio in series [3] and in series [6] were > 9.4 and > 3.1, respectively. Further, the EC50 in series [5] was found to be 5.3 µM.
In the case of `NC(=O)c1ncn([C@H]2[C@H](O)[C@H](O)[C@]3(CO)C[C@H]23)n1`, the CC50 in series [1] and in series [4] was > 50 µM throughout. Besides, the EC50 in series [2] and in series [5] was > 50 µM each time.
